Converted amounts (≈) assume the structure as drawn.
Key:
[1] = test system: MRSA ATCC BAA 1556 (USA300); experiment: In-house broth microdilution MIC screening; type: cell-based, Staphylococcus aureus; conditions: Staphylococcus aureus; broth microdilution; read-out: MIC Value, MRSA ATCC BAA 1556
MSSA ATCC 29213 = experiment: In-house broth microdilution MIC screening; type: cell-based; conditions: Staphylococcus aureus; broth microdilution; read-out: MIC Value, MSSA ATCC 29213

SMILES | MIC [1] | MIC (MSSA ATCC 29213)
CCCCCCCCCCCCCCCC(=O)OCCNC1(C)CC(OC2C(Oc3c4cc5cc3Oc3ccc(cc3Cl)C(O)C3NC(=O)C(NC(=O)C5NC(=O)C(CC(N)=O)NC(=O)C(NC(=O)C(CC(C)C)NC)C(O)c5ccc(c(Cl)c5)O4)c4ccc(O)c(c4)-c4c(O)cc(O)cc4C(C(=O)O)NC3=O)OC(CO)C(O)C2O)OC(C)C1O (stereo not shown) [RV89] | 1 µg/mL (≈ 0.577 µM) | 0.5 µg/mL (≈ 0.289 µM)
CCCCCCCCCCCCCC(=O)NCCNC1(C)CC(OC2C(Oc3c4cc5cc3Oc3ccc(cc3Cl)C(O)C3NC(=O)C(NC(=O)C5NC(=O)C(CC(N)=O)NC(=O)C(NC(=O)C(CC(C)C)NC)C(O)c5ccc(c(Cl)c5)O4)c4ccc(O)c(c4)-c4c(O)cc(O)cc4C(C(=O)O)NC3=O)OC(CO)C(O)C2O)OC(C)C1O (stereo not shown) [RV92] | 0.031 µg/mL (≈ 0.0182 µM) | 0.023 µg/mL (≈ 0.0135 µM)
CCCCCCCCCC(=O)OCCNC1(C)CC(OC2C(Oc3c4cc5cc3Oc3ccc(cc3Cl)C(O)C3NC(=O)C(NC(=O)C5NC(=O)C(CC(N)=O)NC(=O)C(NC(=O)C(CC(C)C)NC)C(O)c5ccc(c(Cl)c5)O4)c4ccc(O)c(c4)-c4c(O)cc(O)cc4C(C(=O)O)NC3=O)OC(CO)C(O)C2O)OC(C)C1O (stereo not shown) [RV54] | 0.167 µg/mL (≈ 0.101 µM) | 0.146 µg/mL (≈ 0.0886 µM)
CNC(CC(C)C)C(=O)NC1C(=O)NC(CC(N)=O)C(=O)NC2C(=O)NC3C(=O)NC(C(=O)NC(C(=O)O)c4cc(O)cc(O)c4-c4cc3ccc4O)C(O)c3ccc(c(Cl)c3)Oc3cc2cc(c3OC2OC(CO)C(O)C(O)C2OC2CC(C)(NCC(=O)O)C(O)C(C)O2)Oc2ccc(cc2Cl)C1O (stereo not shown) [RV101] | > 128 µg/mL | > 128 µg/mL
CCCCCCCCCC(=O)NCCNC1(C)CC(OC2C(Oc3c4cc5cc3Oc3ccc(cc3Cl)C(O)C3NC(=O)C(NC(=O)C5NC(=O)C(CC(N)=O)NC(=O)C(NC(=O)C(CC(C)C)NC)C(O)c5ccc(c(Cl)c5)O4)c4ccc(O)c(c4)-c4c(O)cc(O)cc4C(C(=O)O)NC3=O)OC(CO)C(O)C2O)OC(C)C1O (stereo not shown) [RV56] | 0.063 µg/mL (≈ 0.0383 µM) | 0.063 µg/mL (≈ 0.0383 µM)
CCCCCCCCNC(=O)CNC1(C)CC(OC2C(Oc3c4cc5cc3Oc3ccc(cc3Cl)C(O)C3NC(=O)C(NC(=O)C5NC(=O)C(CC(N)=O)NC(=O)C(NC(=O)C(CC(C)C)NC)C(O)c5ccc(c(Cl)c5)O4)c4ccc(O)c(c4)-c4c(O)cc(O)cc4C(C(=O)O)NC3=O)OC(CO)C(O)C2O)OC(C)C1O (stereo not shown) [RV121] | 0.25 µg/mL (≈ 0.154 µM) | 0.25 µg/mL (≈ 0.154 µM)
CCCCCCCC(=O)NCCNC1(C)CC(OC2C(Oc3c4cc5cc3Oc3ccc(cc3Cl)C(O)C3NC(=O)C(NC(=O)C5NC(=O)C(CC(N)=O)NC(=O)C(NC(=O)C(CC(C)C)NC)C(O)c5ccc(c(Cl)c5)O4)c4ccc(O)c(c4)-c4c(O)cc(O)cc4C(C(=O)O)NC3=O)OC(CO)C(O)C2O)OC(C)C1O (stereo not shown) [RV93] | 0.125 µg/mL (≈ 0.0772 µM) | 0.125 µg/mL (≈ 0.0772 µM)
CCCCCCCCCCCCCCCCOC(=O)CNC1(C)CC(OC2C(Oc3c4cc5cc3Oc3ccc(cc3Cl)C(O)C3NC(=O)C(NC(=O)C5NC(=O)C(CC(N)=O)NC(=O)C(NC(=O)C(CC(C)C)NC)C(O)c5ccc(c(Cl)c5)O4)c4ccc(O)c(c4)-c4c(O)cc(O)cc4C(C(=O)O)NC3=O)OC(CO)C(O)C2O)OC(C)C1O (stereo not shown) [RV128] | 1 µg/mL (≈ 0.577 µM) | 1 µg/mL (≈ 0.577 µM)

— publication PMC8373216, “Development and Preclinical Evaluation of New Inhaled Lipoglycopeptides for the Treatment of Persistent Pulmonary Methicillin-Resistant Staphylococcus aureus Infections” (Antimicrobial Agents and Chemotherapy, 2021)
